The results in this text go back to patent publication US20020165233A1, “Quinoxaline containing medicaments for post exposure prophylaxis of an HIV infection” (priority 1999, published 2002).

This assay deals with RT-SHIV. The assay can be described thus: Inhibitory activity on RT-SHIV replication in Herpes Saimiri Virus transformed monkey CD4+ T cells (P27 SIV gag antigen). The assay is classed as cell-based, chimeric simian-human immunodeficiency virus (SHIV). As to the method:
The virus used in the experiments is a chimeric simian-human immunodeficiency virus (SHIV) that consists of SIVmac239 virus genome with replacement of reverse transcriptase gene (RT) by the corresponding HIV-1 RT gene (Ueberla, K. et al (1995), Medical Sciences 92, […]). RT-SHIV induced AIDS in experimentally infected rhesus monkeys (Ueberla, loc.cit.). Proviral RT-SHIV DNA was prepared by ligation of RT-SHIV5′ and 3′ half of SIVmac239. COS-1 virus stocks were prepared by DNA transfection of proviral DNA. Virus stocks for efficacy experiments were prepared by propagation of COS-1 virus stock in rhesus monkey peripheral blood lymphocytes (PBL). P27 antigen concentration of the virus stocks was determined with a commercial SIV gag antigen ELISA kit (Coulter). The 50% T cell infective dose (TCID50) of the stocks was determined with Herpes Simiri Virus transformed cynomolgus CD4^+ T cells (cyT/HSV).
Inhibitory Activity of COMPOUND A on RT-SHIV Replication in Herpes Saimiri Virus Transformed Monkey CD4^+ T Cells:
3×10^6 of CyT/HSV cells were infected with RT-SHIV stocks containing 10000 TCID50 for 2 h at 37° C., then washed and resuspended in the medium containing serially diluted COMPOUND A (0, 0.1, 0.3, 1, 3, 10, 30, 100, 300, 1000 nM). […] Virus growth was monitored by measuring of P27 SIV gag antigen in culture supernatant with a commercial kit.

With `CC[C@H]1C(=O)Nc2ccc(F)cc2N1C(=O)OC(C)C` [Compound A, (3S)-ethyl-6-fluoro-4-isopropyloxycarbonyl-3,4-dihydroquinoxalin-2(1H)-one], for the setting “10 nM COMPOUND A, Herpes Saimiri Virus transformed monkey CD4+ cells”, the “suppression of RT-SHIV replication” value is “more than 95%”. The IC90 (Simian-Human immunodeficiency virus, CD4+ T, in Primates, read-out: IC90 value (RT-SHIV replication)) was found to be 8 nM.
